Patent US20250376711A1, “COMPOUND-DIAGNOSTIC MARKER FOR UTERINE BODY CANCER, METHOD FOR DETECTING ENZYMATIC ACTIVITY, METHOD FOR DIAGNOSIS OF UTERINE BODY CANCER, KIT COMPRISING THE COMPOUND, USES OF THE COMPOUND AND METHOD FOR THE TREATMENT OF UTERINE BODY CANCER” (URTESTE S.A., priority 2022, published 2025)
Several values for one entry are separate records, joined by “and”; a condition that tells them apart may be missing. Equal entries are not always repeated. Starred links: 1 amine or outer side, 2 acyl side, 3 side chain; linkers in the order of their positions; H or OH if unused. Non-standard residues stand in square brackets, D forms with d. No end group written: not given here. Benzoyl(5-NH,2-NO2) = O=C(c1cc(N[*:1])ccc1[N+](=O)[O-])[*:2]; 2Abz = Nc1ccccc1C(=O)O

What was measured:
Type in all cases: biochemical, human
[1] = tested on: enzymatic (proteolytic) activity in urine from subjects diagnosed with uterine body cancer; experiment: Hydrolysis of the chromogenic substrate in urine from subjects with uterine body cancer (absorbance at 405 nm); parameters: Results of absorbance analysis (rate of hydrolysis of the substrate): unit not given here; details: for Results of absorbance analysis (rate of hydrolysis of the substrate): 405 nm, 37° C., 60 minutes, Tris-HCl pH 8.0, triplicate
Procedure: (§1) The activity of the novel compounds according to the invention was studied in a group of 20 subjects diagnosed with uterine body cancer using the representative compound according to the invention. […] The remaining compounds according to the invention are characterized by the analogous mechanism of action. For this purpose, the representative compound according to the invention, ABZ^1-Pro^2-Arg^3-Thr^4-Ile^5-ANB^6-NH2, was dissolved in dimethyl sulfoxide (at a concentration of 0.5 mg/mL) and then 50 μL of the solution was mixed with 120 μL of a buffer (200 mM Tris-HCl, pH 8.0) and 80 μL of urine from a subject suffering from uterine body cancer. The measurement was performed on a 96-well plate designed for measuring absorbance and each sample was analysed in triplicate at the temperature of 37° C. The duration of the measurement was 60 minutes. During the measurement, the wavelength characteristic for the chromophore (ANB-NH2) being released was monitored at the wavelength 405 nm (range 380-430 nm).
The observed magnitude of increase in absorbance in time is different for each of the examined samples. […] Such a result may be due to the difference in the activity as well as the amount of enzymes responsible for the enzymatic cleavage (proteolysis). […] The result indicates the […] of proteolytic enzymes specific/characteristic of uterine body cancer.

[2] = tested on: enzymatic (proteolytic) activity in urine from healthy subjects; experiment: Hydrolysis of the chromogenic substrate in urine from healthy subjects (absorbance at 405 nm); details: for Results of absorbance analysis (rate of hydrolysis of the substrate): 405 nm, 37° C., 60 minutes, Tris-HCl pH 8.0, triplicate
[3] = tested on: enzymatic activity in urine from patients with kidney cancer; experiment: Selectivity of the cleavage: urine, kidney cancer; details: samples from patients with kidney cancer, mixture of 20 samples
Source text: (§2) Arabic numerals indicate the numbers of given cancer types. The samples tested for each type of cancer were derived from 20 different patients for each of the tested cancers. The results are mean values for given cancer types.
as §1
(§3) Furthermore, the dependence of the cleavage selectivity of the substrate, i.e. the compound according to the invention, on the cancer being examined, was studied. […]

[4] = tested on: enzymatic activity in urine from patients with lung cancer; experiment: Selectivity of the cleavage: urine, lung cancer; details: samples from patients with lung cancer, mixture of 20 samples
Source text: as §2, §1, §3

[5] = tested on: enzymatic activity in urine from patients with prostate cancer; experiment: Selectivity of the cleavage: urine, prostate cancer; details: samples from patients with prostate cancer, mixture of 20 samples
Source text: as §2, §1, §3

[6] = tested on: enzymatic activity in urine from patients with stomach cancer; experiment: Selectivity of the cleavage: urine, stomach cancer; details: samples from patients with stomach cancer, mixture of 20 samples
Source text: as §2, §1, §3

[7] = tested on: enzymatic activity in urine from patients with pancreas cancer; experiment: Selectivity of the cleavage: urine, pancreas cancer; details: samples from patients with pancreas cancer, mixture of 20 samples
Source text: as §2, §1, §3

[8] = tested on: enzymatic activity in urine from patients with ovary cancer; experiment: Selectivity of the cleavage: urine, ovary cancer; details: samples from patients with ovary cancer, mixture of 20 samples
Source text: as §2, §1, §3

[9] = tested on: enzymatic activity in urine from patients with liver cancer; experiment: Selectivity of the cleavage: urine, liver cancer; details: samples from patients with liver cancer, mixture of 20 samples
Source text: as §2, §1, §3

[10] = tested on: enzymatic activity in samples from patients with bladder cancer; experiment: Selectivity of the cleavage: urine, bladder cancer; details: mixture of 20 samples
Source text: as §2, §1, §3

[11] = tested on: enzymatic activity in urine from a person diagnosed with uterine body cancer; experiment: RP HPLC analysis of substrate cleavage in urine from a person with uterine body cancer; details: randomly selected urine from a person diagnosed with uterine body cancer
[12] = tested on: enzyme(s) in the studied material (urine); experiment: Dependence of the hydrolysis level of the substrate on pH; details: FIG. 4
Procedure: Furthermore, measurements concerning the dependence of the proteolytic activity of the representative compound according to the invention on the reaction pH were performed.

## ABZ-Pro-Arg-Thr-Ile-ANB-NH2 ([2Abz]PRTI-{Benzoyl(5-NH,2-NO2)-NH2})
[1]; all urine samples from persons diagnosed with uterine body cancer (T1-T20)
  colour intensity of the solution (absorbance) over time: increased with time
[1]; urine sample T1, uterine body cancer
  Results of absorbance analysis (rate of hydrolysis of the substrate): 0.0066 and 0.006 and 0.0065
[1]; urine sample T2, uterine body cancer
  Results of absorbance analysis (rate of hydrolysis of the substrate): 0.052 and 0.042 and 0.051
[1]; urine sample T3, uterine body cancer
  Results of absorbance analysis (rate of hydrolysis of the substrate): 0.0087 and 0.0088 and 0.0086
[1]; urine sample T4, uterine body cancer
  Results of absorbance analysis (rate of hydrolysis of the substrate): 0.0069 and 0.0051 and 0.0067
[1]; urine sample T5, uterine body cancer
  Results of absorbance analysis (rate of hydrolysis of the substrate): 0.044 and 0.038 and 0.042
[1]; urine sample T6, uterine body cancer
  Results of absorbance analysis (rate of hydrolysis of the substrate): 0.037 and 0.022 and 0.028
[1]; urine sample T8, uterine body cancer
  Results of absorbance analysis (rate of hydrolysis of the substrate): 0.014 and 0.022 and 0.015
[1]; urine sample T9, uterine body cancer
  Results of absorbance analysis (rate of hydrolysis of the substrate): 0.0088 and 0.0101 and 0.0092
[1]; urine sample T10, uterine body cancer
  Results of absorbance analysis (rate of hydrolysis of the substrate): 0.009 and 0.0093 and 0.0085
[1]; urine sample T11, uterine body cancer
  Results of absorbance analysis (rate of hydrolysis of the substrate): 0.0123 and 0.0112 and 0.0145
[1]; urine sample T12, uterine body cancer
  Results of absorbance analysis (rate of hydrolysis of the substrate): 0.0216 and 0.021 and 0.0199
[1]; urine sample T13, uterine body cancer
  Results of absorbance analysis (rate of hydrolysis of the substrate): 0.0045 and 0.0052 and 0.0048
[1]; urine sample T14, uterine body cancer
  Results of absorbance analysis (rate of hydrolysis of the substrate): 0.005 and 0.0061 and 0.0058
[1]; urine sample T15, uterine body cancer
  Results of absorbance analysis (rate of hydrolysis of the substrate): 0.0017 and 0.0015 and 0.0021
[1]; urine sample T16, uterine body cancer
  Results of absorbance analysis (rate of hydrolysis of the substrate): 0.0079 and 0.0084 and 0.0072
[1]; urine sample T18, uterine body cancer
  Results of absorbance analysis (rate of hydrolysis of the substrate): 0.0073 and 0.0068 and 0.0075
[1]; urine sample T19, uterine body cancer
  Results of absorbance analysis (rate of hydrolysis of the substrate): 0.055 and 0.051 and 0.048
[1]; urine sample T20, uterine body cancer
  Results of absorbance analysis (rate of hydrolysis of the substrate): 0.0077 and 0.0075 and 0.0081
[2]; 20 urine samples from healthy subjects
  increase in absorbance within the diagnostic range: no increase in absorbance
[2]; urine sample 21, healthy subject
  Results of absorbance analysis (rate of hydrolysis of the substrate): 0.000000
[2]; urine sample 22, healthy subject
  Results of absorbance analysis (rate of hydrolysis of the substrate): 0.000000
[2]; urine sample 23, healthy subject
  Results of absorbance analysis (rate of hydrolysis of the substrate): 0.000000
[2]; urine sample 24, healthy subject
  Results of absorbance analysis (rate of hydrolysis of the substrate): 0.000000
[2]; urine sample 25, healthy subject
  Results of absorbance analysis (rate of hydrolysis of the substrate): 0.000000
[2]; urine sample 26, healthy subject
  Results of absorbance analysis (rate of hydrolysis of the substrate): 0.000000
[2]; urine sample 27, healthy subject
  Results of absorbance analysis (rate of hydrolysis of the substrate): 0.000000
[2]; urine sample 28, healthy subject
  Results of absorbance analysis (rate of hydrolysis of the substrate): 0.000000
[2]; urine sample 29, healthy subject
  Results of absorbance analysis (rate of hydrolysis of the substrate): 0.000000
[2]; urine sample 30, healthy subject
  Results of absorbance analysis (rate of hydrolysis of the substrate): 0.000000
[2]; urine sample 31, healthy subject
  Results of absorbance analysis (rate of hydrolysis of the substrate): 0.000000
[2]; urine sample 32, healthy subject
  Results of absorbance analysis (rate of hydrolysis of the substrate): 0.000000
[2]; urine sample 33, healthy subject
  Results of absorbance analysis (rate of hydrolysis of the substrate): 0.000000
[2]; urine sample 34, healthy subject
  Results of absorbance analysis (rate of hydrolysis of the substrate): 0.000000
[2]; urine sample 35, healthy subject
  Results of absorbance analysis (rate of hydrolysis of the substrate): 0.000000
[2]; urine sample 36, healthy subject
  Results of absorbance analysis (rate of hydrolysis of the substrate): 0.000000
[2]; urine sample 37, healthy subject
  Results of absorbance analysis (rate of hydrolysis of the substrate): 0.000000
[2]; urine sample 38, healthy subject
  Results of absorbance analysis (rate of hydrolysis of the substrate): 0.000000
[2]; urine sample 39, healthy subject
  Results of absorbance analysis (rate of hydrolysis of the substrate): 0.000000
[2]; urine sample 40, healthy subject
  Results of absorbance analysis (rate of hydrolysis of the substrate): 0.000000
[3]
  cleavage of the substrate / increase in absorbance: is not subject to cleavage
[4]
  cleavage of the substrate / increase in absorbance: is not subject to cleavage
[5]
  cleavage of the substrate / increase in absorbance: is not subject to cleavage
[6]
  cleavage of the substrate / increase in absorbance: is not subject to cleavage
[7]
  cleavage of the substrate / increase in absorbance: is not subject to cleavage
[8]
  cleavage of the substrate / increase in absorbance: is not subject to cleavage
[9]
  cleavage of the substrate / increase in absorbance: is not subject to cleavage
[10]
  cleavage of the substrate / increase in absorbance: is not subject to cleavage
[11]
  cleavage products of the substrate (RP HPLC): cleaves into the peptide fragment ABZ-Pro-Arg-Thr-Ile-OH and the chromophore group of the compound (ANB-NH2)
[12]
  dependence of the hydrolysis of the substrate on the reaction pH: maximum activity at alkaline pH
